Key:
[1] = biological target: AMPK alpha2/beta2/gamma3 (Homo sapiens) (UniProt P54646+O43741+Q9UGI9); test: Activation of human AMPK alpha2/beta2/gamma3 transiently transfected in HEK293 cells assessed as phosphorylation at […]Thr172 by measuring asymptotic max incubated for 20 mins by AlphaLISA assay relative to control; format: cell-based
[2] = biological target: AMPK alpha2/beta2/gamma3 (Homo sapiens, UniProt O43741+P54646+Q9UGI9); test: Activation of human AMPK (alpha2/beta2/gamma3) transiently transfected in HEK293 cells assessed as phosphorylation at […]Thr172 incubated for 20 mins by AlphaLISA assay; format: cell-based
AMPK alpha2/beta2/gamma3, sequence (P54646 whole entry): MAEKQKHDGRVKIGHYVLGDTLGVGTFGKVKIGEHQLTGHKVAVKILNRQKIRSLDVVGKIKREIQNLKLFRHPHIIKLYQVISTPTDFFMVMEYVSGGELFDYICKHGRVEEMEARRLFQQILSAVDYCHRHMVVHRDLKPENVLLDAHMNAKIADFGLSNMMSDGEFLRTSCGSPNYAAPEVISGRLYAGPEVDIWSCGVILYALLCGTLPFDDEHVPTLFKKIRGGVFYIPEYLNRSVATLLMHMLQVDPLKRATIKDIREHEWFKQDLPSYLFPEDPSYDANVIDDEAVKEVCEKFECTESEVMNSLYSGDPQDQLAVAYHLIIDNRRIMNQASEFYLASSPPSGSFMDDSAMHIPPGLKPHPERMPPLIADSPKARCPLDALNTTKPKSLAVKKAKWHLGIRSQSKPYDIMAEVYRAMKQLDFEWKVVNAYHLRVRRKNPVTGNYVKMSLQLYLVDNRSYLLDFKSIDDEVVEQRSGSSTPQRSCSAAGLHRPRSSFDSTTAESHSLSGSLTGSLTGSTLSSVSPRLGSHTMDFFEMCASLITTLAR
AMPK alpha2/beta2/gamma3, sequence (O43741 whole entry): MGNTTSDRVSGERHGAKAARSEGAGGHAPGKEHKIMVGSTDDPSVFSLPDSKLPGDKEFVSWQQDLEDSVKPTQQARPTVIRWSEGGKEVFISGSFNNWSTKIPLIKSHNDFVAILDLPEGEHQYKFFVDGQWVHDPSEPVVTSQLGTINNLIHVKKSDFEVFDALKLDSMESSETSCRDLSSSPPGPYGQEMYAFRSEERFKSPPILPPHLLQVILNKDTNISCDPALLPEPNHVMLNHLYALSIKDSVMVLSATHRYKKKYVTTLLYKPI
AMPK alpha2/beta2/gamma3, sequence (Q9UGI9 whole entry): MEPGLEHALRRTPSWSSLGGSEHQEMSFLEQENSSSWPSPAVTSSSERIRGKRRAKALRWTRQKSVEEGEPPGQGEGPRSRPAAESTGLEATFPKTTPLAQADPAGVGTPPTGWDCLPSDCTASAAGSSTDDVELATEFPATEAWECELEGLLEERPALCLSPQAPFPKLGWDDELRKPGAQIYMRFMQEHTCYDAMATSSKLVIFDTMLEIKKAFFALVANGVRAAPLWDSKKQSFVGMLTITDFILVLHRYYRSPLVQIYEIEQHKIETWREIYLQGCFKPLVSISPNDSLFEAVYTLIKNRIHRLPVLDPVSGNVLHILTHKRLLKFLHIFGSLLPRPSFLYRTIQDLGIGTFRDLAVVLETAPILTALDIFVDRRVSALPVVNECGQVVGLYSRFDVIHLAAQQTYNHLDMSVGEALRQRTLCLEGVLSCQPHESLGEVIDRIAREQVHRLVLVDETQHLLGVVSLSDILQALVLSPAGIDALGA

AMPK alpha2/beta2/gamma3 (Homo sapiens), sequence (O43741 whole entry, looked up): as the sequence (O43741 whole entry) above
AMPK alpha2/beta2/gamma3 (Homo sapiens), sequence (P54646 whole entry, looked up): as the sequence (P54646 whole entry) above
AMPK alpha2/beta2/gamma3 (Homo sapiens), sequence (Q9UGI9 whole entry, looked up): as the sequence (Q9UGI9 whole entry) above

| max activation ([1]; filed as activator) [%] | EC50 [2] [nM] | max activation [1] [%] | Compound |
| --- | --- | --- | --- |
| 112 | – | – | C[C@]1(c2cccc(Cl)c2F)CN(c2ncccc2F)C(=O)c2cnc(NC3CN(C(=O)C4(O)CC4)C3)c(F)c21 |
| 106 | – | – | CC1(c2cccc(Cl)c2F)CN(c2ncccc2F)C(=O)c2cnc(NC3CN(C(=O)N4CCC[C@@H]4CO)C3)nc21 (some centres not stated) |
| 119 | 27.2 | – | Cn1cc(F)c(N2CC(C)(c3cccc(Cl)c3F)c3c(cnc(NC4CN([C@H]5CCCNC5=O)C4)c3F)C2=O)n1 (some centres not stated) |
| 100 | – | – | Cn1cc(F)c(N2C[C@](C)(c3cccc(Cl)c3F)c3c(cnc(NC4CN(C(=O)C(O)CC(F)(F)F)C4)c3F)C2=O)n1 (some centres not stated) |
| 113 | – | – | CC1(c2ccc(F)c(Cl)c2F)CN(c2ccc(CO)cn2)C(=O)c2cnc(NC3CN(C(=O)N4C[C@@H]5C[C@H]4CO5)C3)c(F)c21 (some centres not stated) |
| 120 | – | – | C[C@]1(c2cccc(Cl)c2F)CN(c2ccc([C@@H]3COCCN3)cn2)C(=O)c2cnc(NC3CN(C(=O)c4cccnn4)C3)c(F)c21 |
| 90 | – | – | Cn1cc(F)c(N2C[C@](C)(c3cccc(Cl)c3F)c3c(cnc(NC4CN(C(=O)CC(F)(F)F)C4)c3F)C2=O)n1 |
| 139 | – | – | CN1CCCC(N2CC(Nc3ncc4c(c3F)[C@@](C)(c3cccc(Cl)c3F)CN(c3nn(C)cc3F)C4=O)C2)C1=O (some centres not stated) |
| 89.6 | 21.3 | – | Cn1cc(F)c(N2C[C@](C)(c3cccc(Cl)c3F)c3c(cnc(NC4CN(C(=O)[C@@](C)(O)C5CC5)C4)c3F)C2=O)n1 |
| 81.7 | – | – | Cn1cc(F)c(N2C[C@](C)(c3cccc(Cl)c3F)c3c(cnc(NC4CN(C(=O)[C@@H]5C[C@@H]5F)C4)c3F)C2=O)n1 |
| 85.5 | – | – | Cn1cc(F)c(N2C[C@](C)(c3cccc(Cl)c3F)c3c(cnc(NC4CN(C(=O)C5CCC(F)(F)CN5)C4)c3F)C2=O)n1 (some centres not stated) |
| 154 | 2500 | – | CNCc1ccc(N2C[C@](C)(c3cccc(Cl)c3F)c3nc(NC4CN(C(=O)[C@@H]5C[C@@H]5F)C4)ncc3C2=O)cc1F |
| 52.2 | – | – | Cn1cc(F)c(N2CC(C)(c3cccc(Cl)c3F)c3c(cnc(N[C@@H]4CCN(C(=O)N5C[C@@H]6C[C@H]5CO6)C4)c3F)C2=O)n1 (some centres not stated) |
| – | – | 30.9 | C[C@]1(c2cccc(Cl)c2F)CN(c2cc(OC(F)F)ccn2)C(=O)c2cnc(NC3CN(C(=O)[C@@H]4C[C@@H]4F)C3)c(F)c21 |

— ChEMBL document CHEMBL6103606, “AMP-Activated Protein Kinase Activators as Therapeutic Targets To Treat Heart Failure and Diseases That Can Benefit from Improved Muscular Performance” (ACS Med Chem Lett, 2025)
